Results from paper PMC2572567 (Biochemical pharmacology, 2008).

How the values were obtained:
[1] = tested on: rats; details: cited from earlier work
[2] = tested on: muscarinic receptors in cortex; assay: [3H]oxotremorine-M displacement assay, cortical membranes; format: binding, rat; details: for [3H]Oxotremorine-M maximum displacement: 1 nM [3H]OXO, 21°C, 90 min, mean ± S.E.
[3] = tested on: rats; details: aged versus adult rats; cited from earlier work
[4] = molecular target: T1, muscarinic receptors in heart (Rattus norvegicus, UniProt P10980); assay: [3H]oxotremorine-M displacement assay, cardiac membranes; format: binding; details: for [3H]Oxotremorine-M maximum displacement: 1 nM [3H]OXO, 21°C, 90 min, mean ± S.E.
T1 sequence (P10980 1-466): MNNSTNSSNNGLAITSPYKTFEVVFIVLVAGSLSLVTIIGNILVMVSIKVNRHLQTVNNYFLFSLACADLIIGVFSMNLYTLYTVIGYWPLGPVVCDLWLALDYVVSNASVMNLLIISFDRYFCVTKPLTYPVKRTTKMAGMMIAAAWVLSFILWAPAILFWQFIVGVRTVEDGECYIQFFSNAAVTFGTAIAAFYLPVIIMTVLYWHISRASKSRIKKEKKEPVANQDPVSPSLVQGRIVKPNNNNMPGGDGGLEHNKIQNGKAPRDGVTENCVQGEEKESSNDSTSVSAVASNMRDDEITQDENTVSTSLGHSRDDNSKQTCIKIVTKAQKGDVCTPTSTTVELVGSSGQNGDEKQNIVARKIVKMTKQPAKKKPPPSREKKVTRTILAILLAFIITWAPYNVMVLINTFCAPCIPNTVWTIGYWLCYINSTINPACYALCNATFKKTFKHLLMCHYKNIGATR

[5] = tested on: heart rate; details: Starling heart-lung preparation of the dog; cited from earlier work
[6] = tested on: cardiac muscarinic receptors; details: cited from earlier work
[7] = molecular target: T2, AChE in rat heart (Rattus norvegicus, UniProt P37136); assay: Radiometric cholinesterase assay, AChE activity in cardiac homogenates; format: biochemical; details: heart and cortex (Tables 2 and 3)
T2 sequence (P37136 32-614): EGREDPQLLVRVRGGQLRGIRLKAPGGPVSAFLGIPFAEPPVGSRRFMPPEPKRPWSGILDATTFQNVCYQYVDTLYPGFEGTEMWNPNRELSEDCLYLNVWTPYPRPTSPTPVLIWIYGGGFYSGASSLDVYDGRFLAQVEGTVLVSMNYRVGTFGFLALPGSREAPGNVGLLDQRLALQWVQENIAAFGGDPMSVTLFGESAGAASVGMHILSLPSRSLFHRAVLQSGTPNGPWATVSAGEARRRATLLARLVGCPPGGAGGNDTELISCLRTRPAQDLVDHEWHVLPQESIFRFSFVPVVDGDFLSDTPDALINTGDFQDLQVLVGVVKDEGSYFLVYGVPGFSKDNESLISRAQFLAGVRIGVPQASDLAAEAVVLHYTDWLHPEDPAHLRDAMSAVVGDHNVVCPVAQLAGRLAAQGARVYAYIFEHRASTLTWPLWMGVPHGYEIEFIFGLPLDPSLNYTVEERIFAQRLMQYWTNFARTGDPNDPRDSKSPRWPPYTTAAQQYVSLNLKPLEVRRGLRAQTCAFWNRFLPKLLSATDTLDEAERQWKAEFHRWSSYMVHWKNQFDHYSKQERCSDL

[8] = molecular target: BChE in rat heart (Rattus norvegicus, UniProt Q9JKC1); assay: Radiometric cholinesterase assay, BChE activity in cardiac homogenates; format: biochemical
BChE in rat heart, sequence (Q9JKC1 24-597): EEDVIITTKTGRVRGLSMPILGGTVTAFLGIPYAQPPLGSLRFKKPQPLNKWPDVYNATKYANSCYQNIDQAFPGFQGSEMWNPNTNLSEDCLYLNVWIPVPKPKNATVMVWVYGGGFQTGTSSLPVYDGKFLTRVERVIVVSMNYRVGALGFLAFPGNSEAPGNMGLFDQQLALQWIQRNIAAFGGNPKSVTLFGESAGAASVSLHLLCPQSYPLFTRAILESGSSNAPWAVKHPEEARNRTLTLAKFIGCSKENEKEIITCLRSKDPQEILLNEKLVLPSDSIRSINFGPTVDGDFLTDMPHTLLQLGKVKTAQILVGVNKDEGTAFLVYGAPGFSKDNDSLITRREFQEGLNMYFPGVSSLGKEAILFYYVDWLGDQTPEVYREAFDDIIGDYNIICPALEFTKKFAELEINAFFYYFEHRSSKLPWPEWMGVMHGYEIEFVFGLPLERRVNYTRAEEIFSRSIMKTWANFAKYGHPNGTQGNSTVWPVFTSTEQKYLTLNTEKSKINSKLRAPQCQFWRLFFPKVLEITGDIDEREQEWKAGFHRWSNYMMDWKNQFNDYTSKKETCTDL

CCOP(=S)(OCC)Oc1nc(Cl)c(Cl)cc1Cl [Chlorpyrifos, O,O′-diethyl-O-3,5,6-trichloro-2-pyridinyl phosphorothioate]
oral LD50 [1]: about 100 mg/kg | Displacement of [3H]OXO radioligand binding (in words) ([2]; cortex, adult and aging rats, 30 pM-3 μM): did not displace | Sensitivity of aged rats to acute toxicity relative to adults [3]: similar | Displacement of [3H]OXO radioligand binding (in words) ([4]; heart, adult and aging rats, 30 pM-3 μM): did not displace

C=CC[N+](C)(C)c1ccc(CCC(=O)CCc2ccc([N+](C)(C)CC=C)cc2)cc1.[Br-].[Br-] [BW 284C51, 1,5-bis (allyldimethylammoniumphenyl) pentane-3-dibromide]
Effect on heart rate [5]: had no effect

COP(=S)(OC)Oc1ccc([N+](=O)[O-])cc1 [Methyl parathion, O,O′-dimethyl-p-nitrophenyl-phosphorothioate]
oral LD50 [1]: about 20 mg/kg | [3H]Oxotremorine-M maximum displacement ([2]; adult cortex membranes): 22 ± 3% | [3H]Oxotremorine-M maximum displacement ([2]; aging cortex membranes): 20 ± 3% | Nature of interaction with cardiac muscarinic receptors ([3H]OXO binding sites) [6]: reversibly | [3H]Oxotremorine-M maximum displacement ([4]; adult heart membranes): 31 ± 3% | [3H]Oxotremorine-M maximum displacement ([4]; aging heart membranes): 26 ± 2%

CCOP(=S)(OCC)Oc1ccc([N+](=O)[O-])cc1 [parathion]
Sensitivity of aged rats to acute toxicity relative to adults [3]: 3 fold

COP(=O)(OC)Oc1ccc([N+](=O)[O-])cc1 [Methyl paraoxon, O,O′-dimethyl-p-nitrophenyl-phosphate]
[3H]Oxotremorine-M maximum displacement ([2]; adult cortex membranes): 33 ± 2% | [3H]Oxotremorine-M maximum displacement ([2]; aging cortex membranes): 36 ± 2% | [3H]OXO displacement IC50 in aging cortex, fold higher than adult cortex ([2]; aging versus adult cortex): ~ 10 fold | Sensitivity of AChE relative to BChE to inhibition [7]: ~ 2 fold | [3H]Oxotremorine-M maximum displacement ([4]; adult heart membranes): 37 ± 3% | [3H]Oxotremorine-M maximum displacement ([4]; aging heart membranes): 29 ± 3%

CC(C)NP(=O)(NC(C)C)OP(=O)(NC(C)C)NC(C)C [iso-OMPA, tetraisopropylpyrophosphoramide]
IC50 [8]: 200 nM | IC50 against BChE in heart, fold lower than in cortex ([8]; adult and aging, heart versus cortex): ~ 10 fold

CCOP(=O)(OCC)Oc1nc(Cl)c(Cl)cc1Cl [Chlorpyrifos oxon, O,O′-diethyl-O-3,5,6-trichloro-2-pyridinyl phosphate]
[3H]Oxotremorine-M maximum displacement ([2]; adult cortex membranes): 51 ± 2% | [3H]Oxotremorine-M maximum displacement ([2]; aging cortex membranes): 49 ± 3% | Nature of interaction with cardiac muscarinic receptors ([3H]OXO binding sites) [6]: irreversible | Sensitivity of BChE relative to AChE to inhibition in vitro ([8]; heart and cortex, both age groups): 3.5–12 times | [3H]Oxotremorine-M maximum displacement ([4]; adult heart membranes): 50 ± 3% | [3H]Oxotremorine-M maximum displacement ([4]; aging heart membranes): 39 ± 4%
